# Measurements reported in US7384787B2, “Increasing perhydrolase activity in esterases and/or lipases” (Regents of the University of Minnesota, priority 2005, dated 2008).
# Read-outs that look alike come from different tables or passages of the source.
# T1: Pseudomonas fluorescens aryl esterase (PFE) variant Leu29Pro (parent SEQ ID NO:3) (Pseudomonas fluorescens, UniProt P22862, L30P)
# T1 sequence (P22862 1-272 L30P): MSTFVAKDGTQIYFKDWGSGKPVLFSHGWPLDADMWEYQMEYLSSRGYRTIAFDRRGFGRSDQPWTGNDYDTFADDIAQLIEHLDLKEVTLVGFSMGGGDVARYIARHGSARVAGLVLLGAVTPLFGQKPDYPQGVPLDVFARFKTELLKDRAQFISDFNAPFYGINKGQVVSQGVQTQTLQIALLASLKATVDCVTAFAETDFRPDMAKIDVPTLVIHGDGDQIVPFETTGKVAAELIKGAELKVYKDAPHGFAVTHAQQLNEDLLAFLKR
# T2: Pseudomonas fluorescens aryl esterase (PFE), wild-type, SEQ ID NO:3 (Pseudomonas fluorescens, UniProt P22862)
# T2 sequence (P22862 1-272): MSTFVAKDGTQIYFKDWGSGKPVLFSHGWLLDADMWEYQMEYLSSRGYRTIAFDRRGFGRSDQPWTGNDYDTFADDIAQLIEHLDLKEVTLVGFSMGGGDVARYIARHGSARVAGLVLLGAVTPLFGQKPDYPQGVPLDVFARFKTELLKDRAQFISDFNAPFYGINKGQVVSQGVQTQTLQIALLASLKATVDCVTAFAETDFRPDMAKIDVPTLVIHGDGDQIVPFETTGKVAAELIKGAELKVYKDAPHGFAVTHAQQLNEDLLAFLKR
# Columns and labels:
# [1] = biological target: T1, Pseudomonas fluorescens aryl esterase (PFE) variant Leu29Pro (parent SEQ ID NO:3); assay: Kinetics of p-nitrophenyl acetate hydrolysis, Leu29Pro PFE; format: biochemical; design: expressed as in Cheeseman et al. 2004
# Description: (§1) The p-nitrophenyl acetate (pNPAc) assay contained pNPAc (0.3 mM) and 8% acetonitrile as co-solvent in BES buffer (5 mM, pH 7.2). The reaction was monitored spectrophotometrically at 404 nm (ε=11.4·10 ^3 M^−1 cm^−1). A pH-indicator assay was used to assay substrates without inherent light absorbing properties (Janes et al., 1998, Chem. Eur. J. 4:2324-2331). The reactions were carried out in BES buffer (5 mM, pH 7.2) containing p-nitrophenol. As hydrolysis progresses, protons add to the p-nitrophenolate and the course of reaction can be monitored as a decrease in absorbance at 404 nm (ε=16.5·10^3 M^−1 cm^−1). This provides a good estimate of reaction rates, but is limited to substrates containing only one possible acid-functionality, as several would interfere with the pH indicator.
# (§2) Kinetic parameters for hydrolysis of pNPAc in wild-type and Leu29Pro were carried out with pNPAc at 0.1, 0.2, 0.5, 1.0, 2.0, 4.0, and 10 mM under otherwise identical conditions as for the pNPAc-assay. Solubility problems limited higher substrate concentrations than 10 mM. Data points were fitted by non-linear regression using OriginPro 7.5 SR1 v7.5776 (OriginLab Corporation, Northampton, Mass.) with a hyperbola function of basic equation y=P1*x/(P2+x), where x is the substrate concentration (mM), P1 corresponds to Vmax (μmol min^−1 mg^−1 or U/mg), and P2 corresponds to KM (mM). R^2-values for were 0.992 and 0.997 for wild-type and Leu29Pro, respectively.
# [2] = biological target: T2, Pseudomonas fluorescens aryl esterase (PFE), wild-type, SEQ ID NO:3
# Description: (§3) Activity assays were performed in quadruplicates on 96-well microtiter plates with a reaction volume of 100 μl (90 μl assay solution to 10 μl enzyme in 5 mM BES pH 7.2). The path-length for light through the well was 0.29 cm.
# (§4) The monochlorodimedon (MCD) assay (Hager et al., 1966, J. Biol. Chem., 241:1769-1777) was used to detect peracid formation. Each reaction contained MCD (0.18 mM), H2O2 (90 mM), NaBr (90 mM) in acetate buffer (1 M, pH 5.5) at 25° C. The reaction was followed spectrophotometrically at 290 nm in UV-transparent microtiter plates (ε=19.9×10^3 M^−1 cm^−1).
# (§5) An estimate of kinetic parameters was also obtained for hydrogen peroxide in wild-type and Leu29Pro. The hydrogen peroxide in wild-type was 5, 10, 20, 50, 100, and 200 mM; for Leu29Pro, the concentrations were 5, 10, 20, 35, 50, 121, 152, and 200 mM.
# [3] = biological target: T1, Pseudomonas fluorescens aryl esterase (PFE) variant Leu29Pro (parent SEQ ID NO:3)
# Description: as §3, §4, §5
# [4] = substrate: CC(=O)Oc1ccc([N+](=O)[O-])cc1; assay: Kinetics of p-nitrophenyl acetate hydrolysis, wild-type PFE; format: biochemical, Pseudomonas fluorescens; conditions: other: hydrolysis of pNPAc 0.1-10 mM, 5 mM BES pH 7.2, 8% acetonitrile
# Description: as §1, §2
# [5] = substrate: CC(=O)Oc1ccc([N+](=O)[O-])cc1; assay: Kinetics of p-nitrophenyl acetate hydrolysis, Leu29Pro PFE; format: biochemical, Pseudomonas fluorescens; conditions: other: hydrolysis of pNPAc 0.1-10 mM, 5 mM BES pH 7.2, 8% acetonitrile
# Description: as §1, §2
# [6] = perhydrolysis, H2O2 5-200 mM, 1 M acetate pH 5.5, 25° C.
# [7] = perhydrolysis, H2O2 5-200 mM, 1 M acetate pH 5.5, 25° C., Leu29Pro
molecule,measurement,setting,value
"CC(=O)Oc1ccc([N+](=O)[O-])cc1 [pNPAc, p-nitrophenyl acetate]",fold decrease in Vmax for hydrolysis of pNPAc,[1]; Leu29Pro vs wild-type,50 fold
same,increase in KM for pNPAc,[1]; Leu29Pro vs wild-type,three-fold
same,fold change in catalytic efficiency (Vmax/KM) for hydrolysis of pNPAc,[1]; Leu29Pro vs wild-type (decrease),165 fold
"OO [H2O2, hydrogen peroxide]",Vmax/KM,"[2]; perhydrolysis of acetic acid, H2O2",13 U mg^−1 M^−1
same,Km,[2]; [6],17 mM
same,Vmax,[2]; [6],0.22 ± 0.02 U mg^−1
same,Vmax,"[2]; perhydrolysis, H2O2 5-200 mM, 1 M acetate pH 5.5, 25° C., listed as hydrogen peroxide",0.22 U mg^−1
same,fold increase in Vmax for perhydrolysis,[3]; Leu29Pro vs wild-type,50 fold
same,fold increase in catalytic efficiency (Vmax/KM) for perhydrolysis of acetic acid,[3]; Leu29Pro vs wild-type,14 fold
same,increase in Km for hydrogen peroxide,[3]; Leu29Pro vs wild-type,three-fold
same,Vmax/KM,"[3]; perhydrolysis of acetic acid, H2O2, Leu29Pro",180 U mg^−1 M^−1
same,Km,[3]; [7],58 mM
same,Vmax,[3]; [7],11 ± 1 U mg^−1
same,Vmax,"[3]; perhydrolysis, H2O2 5-200 mM, 1 M acetate pH 5.5, 25° C., Leu29Pro, listed as hydrogen peroxide",11 U mg^−1
"Pseudomonas fluorescens aryl esterase (PFE), wild-type, SEQ ID NO:3 (Pseudomonas fluorescens) (protein, expressed as in Cheeseman et al. 2004) MSTFVAKDGTQIYFKDWGSGKPVLFSHGWLLDADMWEYQMEYLSSRGYRTIAFDRRGFGRSDQPWTGNDYDTFADDIAQLIEHLDLKEVTLVGFSMGGGDVARYIARHGSARVAGLVLLGAVTPLFGQKPDYPQGVPLDVFARFKTELLKDRAQFISDFNAPFYGINKGQVVSQGVQTQTLQIALLASLKATVDCVTAFAETDFRPDMAKIDVPTLVIHGDGDQIVPFETTGKVAAELIKGAELKVYKDAPHGFAVTHAQQLNEDLLAFLKR",Km,[4],2.8 ± 0.4 mM
same,Vmax,[4],143 µmol/min/mg
same,Vmax/Km,[4],51000 µL/min/mg
"Pseudomonas fluorescens aryl esterase (PFE) variant Leu29Pro (parent SEQ ID NO:3) (Pseudomonas fluorescens; L30P) (protein, expressed as in Cheeseman et al. 2004) MSTFVAKDGTQIYFKDWGSGKPVLFSHGWPLDADMWEYQMEYLSSRGYRTIAFDRRGFGRSDQPWTGNDYDTFADDIAQLIEHLDLKEVTLVGFSMGGGDVARYIARHGSARVAGLVLLGAVTPLFGQKPDYPQGVPLDVFARFKTELLKDRAQFISDFNAPFYGINKGQVVSQGVQTQTLQIALLASLKATVDCVTAFAETDFRPDMAKIDVPTLVIHGDGDQIVPFETTGKVAAELIKGAELKVYKDAPHGFAVTHAQQLNEDLLAFLKR",Km,[5],8.9 ± 1.1 mM
same,Vmax,[5],2.8 µmol/min/mg
same,Vmax/Km,[5],310 µL/min/mg
